Test results taken from article PMC9421653 (Journal of Medicinal Chemistry, 2022).
Values after ≈ are worked out from the molar mass of the structure shown. “Also recorded” adds a separate entry of the source.

Legend:
mouse plasma protein = assay: Mouse plasma protein binding; type: in vitro ADME
human FFAR3 = target: T1, human FFAR3 (Homo sapiens, UniProt O14843); assay: [35S]GTPγS binding, block of C3 (propionate) at FFAR3; type: biochemical; conditions: tested at 10 μM
T1 construct: expressed in transfected cells; host or cells: Flp-In T-REx 293 cells, induced; membrane preparations
T1 sequence (O14843 1-346): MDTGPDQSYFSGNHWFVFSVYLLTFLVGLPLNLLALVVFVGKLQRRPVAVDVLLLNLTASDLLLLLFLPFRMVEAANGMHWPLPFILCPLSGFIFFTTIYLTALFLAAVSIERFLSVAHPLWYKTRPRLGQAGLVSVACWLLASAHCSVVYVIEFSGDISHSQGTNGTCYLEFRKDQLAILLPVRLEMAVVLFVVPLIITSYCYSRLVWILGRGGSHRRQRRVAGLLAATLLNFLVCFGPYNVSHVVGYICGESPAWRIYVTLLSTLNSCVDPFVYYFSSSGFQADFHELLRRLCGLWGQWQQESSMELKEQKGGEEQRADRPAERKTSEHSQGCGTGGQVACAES

physchem = assay: physchem
Source text: DPI = 4,5-Diphenylimidazole
(2 pictures or pasted objects on this page, not shown here)

[1] = Mouse hepatocyte stability; type: in vitro ADME; conditions: hepatocytes, read-out: mouse heps t1/2
[2] = Log D7.4 (distribution coefficient); type: physicochemical; conditions: pH 7.4
[3] = In vivo mouse PK, PO dosing; conditions: for Tmax / AUCall / Cmax: PO (10 mg/kg); for AUCall / Cmax / bioavailability: CV % in parenthesis; for bioavailability: male, C57BL/6J, plasma, PO (10 mg/kg) vs IV (1 mg/kg)
Protocol: (§1) Mouse pharmacokinetic studies were carried out by Xenogesis Ltd. (Nottingham, U.K.). All life phases were conducted in accordance with the local Ethics Review process.
(§2) Male C57BL/6J mice (n = 3, Charles River, U.K.) were orally administered with a dose of 10 mg/kg of the appropriate compound (formulation 0.5% w/v methylcellulose in water). […] Plasma concentrations were determined by LC/MS/MS. LC/MS/MS analysis was performed using a Thermo TSQ Quantiva with Thermo Vanquish UPLC system on a Luna Omega C18 column. The plasma concentrations were simulated by nonparametric analysis from the plasma concentrations obtained in the PK study using Phoenix WinNonlin.

[4] = In vivo mouse PK, IV dosing; conditions: IV (1 mg/kg), CV % in parenthesis
Protocol: as §1
as §2, with “intravenously” for “orally”, “1” for “10”, “5% v/v DMSO in 20%” for “0.5%”, “HPCD” for “methylcellulose”

human FFAR2 = target: T2, human FFAR2 (Homo sapiens, UniProt O15552); assay: [35S]GTPγS binding, block of C3 (propionate) at FFAR2; type: biochemical; conditions: tested at 10 μM
T2 construct: expressed in transfected cells; host or cells: Flp-In T-REx 293 cells, induced; membrane preparations
T2 sequence (O15552 1-330): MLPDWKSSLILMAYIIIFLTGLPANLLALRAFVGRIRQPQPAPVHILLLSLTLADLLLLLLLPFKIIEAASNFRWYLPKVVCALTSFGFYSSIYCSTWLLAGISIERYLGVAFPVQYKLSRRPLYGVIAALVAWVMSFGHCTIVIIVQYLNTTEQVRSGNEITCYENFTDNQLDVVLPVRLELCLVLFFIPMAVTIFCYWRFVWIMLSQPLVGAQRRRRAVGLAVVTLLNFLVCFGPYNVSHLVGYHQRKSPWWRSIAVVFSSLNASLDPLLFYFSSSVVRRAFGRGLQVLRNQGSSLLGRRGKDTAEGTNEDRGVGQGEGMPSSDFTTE

human GPR84 = target: T3, human GPR84 (Homo sapiens, UniProt P04899+Q9NQS5); assay: biochemical; type: biochemical; conditions: [35S]GTPγS assay; negative log of the IC50 in molar; mean ± SEM
T3 construct: expressed in transfected cells; host or cells: Flp-In T-REx 293 cells, doxycycline-induced; membrane preparations
T3 sequence (Q9NQS5+P04899 fused): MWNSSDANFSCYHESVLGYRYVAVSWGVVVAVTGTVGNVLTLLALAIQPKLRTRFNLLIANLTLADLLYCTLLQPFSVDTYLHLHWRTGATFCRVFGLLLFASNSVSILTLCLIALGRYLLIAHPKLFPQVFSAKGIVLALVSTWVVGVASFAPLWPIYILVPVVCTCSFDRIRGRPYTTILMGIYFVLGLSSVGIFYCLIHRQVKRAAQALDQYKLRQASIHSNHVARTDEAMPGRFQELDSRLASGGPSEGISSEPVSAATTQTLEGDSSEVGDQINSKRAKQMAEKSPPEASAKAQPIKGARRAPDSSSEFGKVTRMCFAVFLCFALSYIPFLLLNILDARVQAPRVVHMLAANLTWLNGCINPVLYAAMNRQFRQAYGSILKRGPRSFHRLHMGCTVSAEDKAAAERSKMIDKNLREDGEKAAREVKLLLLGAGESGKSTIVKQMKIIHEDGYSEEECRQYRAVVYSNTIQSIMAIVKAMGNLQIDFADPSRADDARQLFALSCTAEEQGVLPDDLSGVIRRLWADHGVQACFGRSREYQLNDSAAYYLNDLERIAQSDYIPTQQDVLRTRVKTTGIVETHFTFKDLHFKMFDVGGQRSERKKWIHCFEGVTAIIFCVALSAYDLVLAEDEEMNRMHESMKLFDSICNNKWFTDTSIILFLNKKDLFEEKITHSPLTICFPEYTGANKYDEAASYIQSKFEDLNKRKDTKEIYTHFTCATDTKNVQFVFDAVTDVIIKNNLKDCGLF

in vitro = conditions: human, microsomes
[5] = Mouse plasma protein binding; type: in vitro ADME; conditions: read-out: mouse PPB
[6] = target: GPR84-Gαi2 fusion protein, Phe101Ala (Homo sapiens, UniProt Q9NQS5, F101A); assay: [35S]GTPγS binding, GPR84-Gαi2 fusion protein, Phe101Ala; conditions: Phe101 to Ala, versus wild type
Sequence of GPR84-Gαi2 fusion protein, Phe101Ala (Q9NQS5 whole entry F101A, the tested form may be a part): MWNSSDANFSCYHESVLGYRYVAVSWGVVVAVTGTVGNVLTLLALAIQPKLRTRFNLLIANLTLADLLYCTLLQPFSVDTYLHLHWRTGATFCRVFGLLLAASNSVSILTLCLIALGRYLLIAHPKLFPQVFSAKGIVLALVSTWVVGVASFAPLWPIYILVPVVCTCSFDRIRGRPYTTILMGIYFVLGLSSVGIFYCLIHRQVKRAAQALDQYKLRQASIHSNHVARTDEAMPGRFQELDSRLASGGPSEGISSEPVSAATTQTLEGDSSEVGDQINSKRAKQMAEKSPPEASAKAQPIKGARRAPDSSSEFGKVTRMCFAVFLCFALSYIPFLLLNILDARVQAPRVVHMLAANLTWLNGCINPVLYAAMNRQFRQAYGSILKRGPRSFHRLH
Sequence of GPR84-Gαi2 fusion protein, Phe101Ala (P04899 2-355 partner): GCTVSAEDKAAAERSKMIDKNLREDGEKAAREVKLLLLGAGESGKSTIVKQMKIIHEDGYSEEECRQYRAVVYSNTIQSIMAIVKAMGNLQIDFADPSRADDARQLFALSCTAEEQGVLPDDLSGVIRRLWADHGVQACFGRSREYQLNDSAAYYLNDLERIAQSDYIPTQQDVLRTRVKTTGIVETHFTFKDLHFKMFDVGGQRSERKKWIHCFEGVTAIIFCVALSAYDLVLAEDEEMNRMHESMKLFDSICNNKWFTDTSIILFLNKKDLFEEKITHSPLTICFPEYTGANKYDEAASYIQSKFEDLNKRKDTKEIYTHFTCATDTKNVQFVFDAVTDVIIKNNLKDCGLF

[7] = target: GPR84-Gαi2 fusion protein, Phe335Ala (Homo sapiens, UniProt Q9NQS5, F335A); assay: [35S]GTPγS binding, GPR84-Gαi2 fusion protein, Phe335Ala; conditions: Phe335 to Ala, versus wild type
Sequence of GPR84-Gαi2 fusion protein, Phe335Ala (Q9NQS5 whole entry F335A, the tested form may be a part): as the sequence (Q9NQS5 whole entry F101A, the tested form may be a part) above, with A101F, F335A counted along it
Sequence of GPR84-Gαi2 fusion protein, Phe335Ala (P04899 2-355 partner): as the sequence (P04899 2-355 partner) above

mouse GPR84 = conditions: cited from earlier work
[8] = target: GPR84-Gαi2 fusion protein, Trp360Ala (Homo sapiens, UniProt Q9NQS5, W360A); assay: [35S]GTPγS binding, GPR84-Gαi2 fusion protein, Trp360Ala; conditions: Trp360 to Ala, versus wild type
Sequence of GPR84-Gαi2 fusion protein, Trp360Ala (Q9NQS5 whole entry W360A, the tested form may be a part): as the sequence (Q9NQS5 whole entry F101A, the tested form may be a part) above, with A101F, W360A counted along it
Sequence of GPR84-Gαi2 fusion protein, Trp360Ala (P04899 2-355 partner): as the sequence (P04899 2-355 partner) above

[9] = pH 7.4, Kinetic Solubility, R=1, PBS pH7.4 in 2% DMSO by plate reader, replicate 1
[10] = pH 7.4, Kinetic Solubility, R=2, PBS pH7.4 in 2% DMSO by plate reader, replicate 2
[11] = pH 7.4, kinetic solubility, PBS pH7.4 in 2% DMSO

Structure (SMILES) | mouse PPB (mouse plasma protein) [%free] | block of the actions of the C3 fatty acid propionate at FFAR3 (human FFAR3) | solubility kinetic (physchem; [9]) [µM] | solubility kinetic (physchem; [10]) [µM] | solubility kinetic (physchem; [11]) [µM] | half-life [1] [min] | logD [2] | Tmax [3] [min] | AUCall [3] | Cmax [3] | bioavailability [3] [%] | AUCall [4] | C0 [4] | CL [4] | Vss [4] | half-life [4] | block of the actions of the C3 fatty acid propionate at FFAR2 (human FFAR2) | GTPγS (pIC50) (human GPR84) | half-life (in vitro) [min] | fraction unbound [5] | further results
c1ccc(-c2nc(Cc3c[nH]c4ccccc34)nnc2-c2ccc(CN3CCOCC3)cc2)cc1 [Compound 42, 4-(4-(3-((1H-Indol-3-yl)methyl)-5-phenyl-1,2,4-triazin-6-yl)benzyl)morpholine] | <1 | no ability to block; also recorded: did not block | 12 (≈ 5.54 µg/mL) | 16 (≈ 7.39 µg/mL) | 14 (≈ 6.46 µg/mL) | 16 | 3.84 | 60 | 1590 (18.7) ng/mL·h | 402 (31.8) ng/mL | 36.8 | 420 (12.5) ng/mL·h | 394 (19.1) ng/mL | 38.9 (13.9) mL/min/kg | 7.24 (9.2) L/kg | 2.51 (6.55) h | no ability to block; also recorded: did not block | 8.28 ± 0.11 | 12.8 |  | 
CNC(=O)c1ccc(-c2nnc(Cc3c[nH]c4cnccc34)nc2-c2ccccc2)cc1 [Compound 68, 4-(3-((1H-Pyrrolo[2,3-c]pyridin-3-yl)methyl)-5-phenyl-1,2,4-triazin-6-yl)-N-methylbenzamide] |  |  | 149 (≈ 62.7 µg/mL) | 143 (≈ 60.1 µg/mL) | 146 (≈ 61.4 µg/mL) | 12.5 | 2.71 |  |  |  |  |  |  |  |  |  |  | 7.29 ± 0.05 | 39.9 | 0.038 | 
c1ccc(-c2nnc(Cc3c[nH]c4ccccc34)nc2-c2ccccc2)cc1 [Compound 4, 3-((5,6-Diphenyl-1,2,4-triazin-3-yl)methyl)-1H-indole] | <1 | no ability to block; also recorded: did not block |  |  | 1.4 (≈ 0.507 µg/mL) | 4.4 | 4.24 |  |  |  |  |  |  |  |  |  | no ability to block; also recorded: did not block |  | 21.8 |  | solubility kinetic (physchem; pH 7.4, Kinetic Solubility, R=1, PBS pH7.4 in 2% DMSO by LC-MS, replicate 1): 1.5 µM (≈ 0.544 µg/mL); solubility kinetic (physchem; pH 7.4, Kinetic Solubility, R=2, PBS pH7.4 in 2% DMSO by LC-MS, replicate 2): 1.3 µM (≈ 0.471 µg/mL)
O=C(NCCO)c1ccc(-c2nnc(Cc3c[nH]c4ccccc34)nc2-c2ccccc2)cc1 [Compound 76, 4-(3-((1H-Indol-3-yl)methyl)-5-phenyl-1,2,4-triazin-6-yl)-N-(2-hydroxyethyl)benzamide] |  | no ability to block; also recorded: did not block | 59 (≈ 26.5 µg/mL) | 62 (≈ 27.9 µg/mL) | 61 (≈ 27.4 µg/mL) | 47.3 | 3.09 | 60 | 3160 (8.82) ng/mL·h | 1080 (16.1) ng/mL | 41.5 | 757 (10.8) ng/mL·h | 1170 (29.6) ng/mL | 22.0 (11.3) mL/min/kg | 1.81 (15.2) L/kg | 1.22 (13.5) h | no ability to block; also recorded: did not block | 7.46 ± 0.07 | 57.2 | 0.011 | 
COc1ccc(-c2nnc(Cc3c[nH]c4ccccc34)nc2-c2ccc(OC)cc2)cc1 [Compound 1, 3-((5,6-Bis(4-methoxyphenyl)-1,2,4-triazin-3-yl)methyl)-1H-indole] |  | no ability to block; also recorded: did not block |  |  |  |  |  |  |  |  |  |  |  |  |  |  | no ability to block; also recorded: did not block | 7.93 ± 0.21 |  |  | affinity to block effects of the allosteric agonist PSB-16671 [6]: substantial loss of affinity; affinity to block effects of the allosteric agonist PSB-16671 [7]: substantial loss of affinity; antagonism of mouse GPR84 (mouse GPR84): unable to antagonize; affinity to block effects of the allosteric agonist PSB-16671 [8]: substantial loss of affinity
